Measured values as given in paper PMC6429263, “Evolution and Antibacterial Evaluation of 8-Hydroxy-cycloberberine Derivatives as a Novel Family of Antibacterial Agents Against MRSA” (Molecules, 2019).
Converted amounts (≈) assume the structure as drawn. Like-named read-outs stand apart in the source and are kept apart here.

Key:
MRSA ATCC 43300 = assay: MIC, agar dilution, MRSA ATCC 43300; assay type: cell-based; conditions: Staphylococcus aureus
MSSA ATCC 29213 = assay: MIC, agar dilution, MSSA ATCC 29213; assay type: cell-based, S. aureus; conditions: Staphylococcus aureus
VISA ATCC 700698 = assay: MIC, agar dilution, VISA ATCC 700698; assay type: cell-based; conditions: Staphylococcus aureus
MRSA 13-23 = assay: MIC, agar dilution, MRSA 13-23; assay type: cell-based; conditions: Staphylococcus aureus
[1] = tested on: drug-susceptible strains: MSSA, MSSE, S. saprophyticus, S. hominis; assay: MIC across the panel of drug-susceptible Gram-positive strains; assay type: cell-based; conditions: drug-susceptible Gram-positive strains of Table 1; for MIC: 18 h, read-out: MICs (range over strains)
Excerpt: SAR study for antibacterial activity against drug-susceptible Gram-positive bacteria was initially carried out, taking Lev and compound 1 as reference drugs. […] Bacteria strains used in this study were from the ATCC collection and clinical isolates in Chinese hospitals. The influence of the methylenedioxy ring was explored first, and compounds 6 and 10 were created and tested.

MSSA 16-1 = assay: MIC, agar dilution, MSSA 16-1 (clinical isolate); assay type: cell-based, S. aureus; conditions: Staphylococcus aureus
MSSA 15 = assay: MIC, agar dilution, MSSA 15 (clinical isolate); assay type: cell-based, S. aureus; conditions: Staphylococcus aureus
S.h ATCC 35982 = assay: MIC, agar dilution, S.h ATCC 35982; assay type: cell-based; conditions: Staphylococcus hominis, ATCC35982
MRSE 16-5 = assay: MIC, agar dilution, MRSE 16-5; assay type: cell-based, S. epidermidis; conditions: Staphylococcus epidermidis
MSSE 16-5 = assay: MIC, agar dilution, MSSE 16-5 (clinical isolate); assay type: cell-based, S. epidermidis; conditions: Staphylococcus epidermidis
MRSA ATCC-B AA-1708 = assay: MIC, agar dilution, MRSA ATCC-BAA-1708 (mupA positive); assay type: cell-based; conditions: Staphylococcus aureus
MRSA 13-18 = assay: MIC, agar dilution, MRSA 13-18; assay type: cell-based; conditions: Staphylococcus aureus
MRSE 13-3 = assay: MIC, agar dilution, MRSE 13-3; assay type: cell-based, S. epidermidis; conditions: Staphylococcus epidermidis
MRSA 16-34 = assay: MIC, agar dilution, MRSA 16-34; assay type: cell-based; conditions: Staphylococcus aureus
S.s ATCC 15305 = assay: MIC, agar dilution, S.s ATCC 15305; assay type: cell-based; conditions: Staphylococcus saprophyticus, ATCC15305
MRSA ATCC -BAA-976 = assay: MIC, agar dilution, MRSA ATCC-BAA-976 (clindamycin-resistant); assay type: cell-based; conditions: Staphylococcus aureus
VISA ATCC 700699 = assay: MIC, agar dilution, VISA ATCC 700699; assay type: cell-based; conditions: Staphylococcus aureus
MSSE ATCC 12228 = assay: MIC, agar dilution, MSSE ATCC 12228; assay type: cell-based, S. epidermidis; conditions: Staphylococcus epidermidis
MSSA/MRSA tested strains = tested on: MSSA/MRSA tested strains; design: method as in PMID 29795764, PMID 30145374; conditions: cited from earlier work
Stability in whole blood = assay type: in vitro ADME, SD rat; conditions: for Rr (remaining ratio): whole blood, 37 °C
Method: Fresh blood was collected on the day of experiment from SD rats and pre-warmed in a water bath at 37 °C. 10 mM test compound or Ems stock solutions were prepared in DMSO, and then diluted with 45% MeOH/H2O to achieve 100 μM dosing solutions. Each dosing solution (2 μL) was incubated with 98 µL of blank blood at 37 °C in water bath for 0, 0.5, 1, 3, 7 and 24 h, respectively. At the end of incubation, for each sample, 100 μL water and 800 μL of stop solution (200 ng/mL tolbutamide plus 20 ng/mL buspirone in ACN) were immediately added to precipitate protein and centrifuge at 4,000 rpm for 20 min. An aliquot of supernatant (100 μL) was then extracted, mixed with 200 μL H2O and then shook at 800 rpm for about 10 min before submitting to LC-MS/MS analysis. The experiment was repeated two times.

[2] = VISA ATCC 700698, read-out: MIC
[3] = MSSA 16-1, isolated from patients in China, read-out: MIC
[4] = MSSA 15, isolated from patients in China, read-out: MIC
[5] = S. hominis ATCC 35982, read-out: MIC
[6] = MSSE 16-5, isolated from patients in China, read-out: MIC
[7] = MRSA ATCC-BAA-1708, mupA positive (mupirocin resistance), read-out: MIC
[8] = S. saprophyticus ATCC 15305, read-out: MIC
[9] = MRSA ATCC-BAA-976, clindamycin-resistant S. aureus, read-out: MIC
[10] = VISA ATCC 700699, read-out: MIC
[11] = ATCC12228, MSSE ATCC 12228, read-out: MIC

MIC (MRSA ATCC 43300; MRSA ATCC 43300, read-out: MIC) [µg/mL]	MIC (MSSA ATCC 29213; MSSA ATCC 29213, read-out: MIC) [µg/mL]	MIC (VISA ATCC 700698; [2]) [µg/mL]	MIC (MRSA 13-23; MRSA 13-23, read-out: MIC) [µg/mL]	MIC [1] [µg/mL]	MIC (MSSA 16-1; [3]) [µg/mL]	MIC (MSSA 15; [4]) [µg/mL]	MIC (S.h ATCC 35982; [5]) [µg/mL]	MIC (MRSE 16-5; MRSE 16-5, read-out: MIC) [µg/mL]	MIC (MSSE 16-5; [6]) [µg/mL]	MIC (MRSA ATCC-B AA-1708; [7]) [µg/mL]	MIC (MRSA 13-18; MRSA 13-18, read-out: MIC) [µg/mL]	MIC (MRSE 13-3; MRSE 13-3, read-out: MIC) [µg/mL]	MIC (MRSA 16-34; MRSA 16-34, read-out: MIC) [µg/mL]	MIC (S.s ATCC 15305; [8]) [µg/mL]	MIC (MRSA ATCC -BAA-976; [9]) [µg/mL]	MIC (VISA ATCC 700699; [10]) [µg/mL]	MIC (MSSE ATCC 12228; [11]) [µg/mL]	SMILES	further results
16	8	8	16	8 to 16	8	16	8	16	8	8	16	8	8	8	16	8	16	COc1ccc2c(c[n+]3ccc4cc5c(c6c(Cc7ccccc7)cc2c3c46)OCO5)c1O [13a, 1,2-Methylenedioxy-8-hydroxy-9-methoxy-13-benzylcycloberberine chloride]	
8	8	4	8	2 to 8	4	8	8	4	4	8	8	64	4	16	4	8	8	COc1ccc2c(c[n+]3ccc4cc5c(c6c(Cc7ccc(Cl)cc7)cc2c3c46)OCO5)c1O [13e, 1,2-Methylenedioxy-8-hydroxy-9-methoxy-13-p-chlorobenzylcycloberberine chloride]	
8	4	4	8	2 to 16	4	4	8	4	2	4	8	4	4	16	8	4	4	COc1ccc2c(c[n+]3ccc4cc5c(c6c(Cc7cccc(C)c7)cc2c3c46)OCO5)c1O [13h, 1,2-Methylenedioxy-8-hydroxy-9-methoxy-13-m-methylbenzylcycloberberine chloride]	
8	8	8	8	4 to 16	4	8	8	8	4	4	16	32	4	16	8	4	8	COc1ccc2c(c[n+]3ccc4cc5c(c6c(Cc7ccccc7[N+](=O)[O-])cc2c3c46)OCO5)c1O [13p, 1,2-Methylenedioxy-8-hydroxy-9-methoxy-13-o-nitrobenzylcycloberberine chloride]	
> 64	> 64	> 64	> 64		> 64	> 64	> 64	> 64	> 64	> 64	> 64	> 64	> 64	> 64	> 64	> 64	> 64	COc1ccc2c(c[n+]3c4c2ccc2c5c(cc(c24)CC3)OCO5)c1OC [CBBR, cycloberberine]	bactericidal activity (MSSA/MRSA tested strains; MSSA/MRSA): no bactericidal activity at all; MICs (range over strains) (MSSA/MRSA tested strains; tested strains such as MRSA): > 64 µg/mL
																		CCOC(=O)[C@H](CCc1ccccc1)N[C@@H](C)C(=O)N1CCC[C@H]1C(=O)O [Ems, enalapril]	stability in whole blood (Stability in whole blood): completely decomposed; Rr (remaining ratio) (Stability in whole blood; 0 h): 100%; Rr (remaining ratio) (Stability in whole blood; 0.5 h): 37.5%; Rr (remaining ratio) (Stability in whole blood; 1 h): 9.1%; Rr (remaining ratio) (Stability in whole blood; 3 h): 0%; Rr (remaining ratio) (Stability in whole blood; 7 h): 0%; Rr (remaining ratio) (Stability in whole blood; 24 h): 0%
																		COc1ccc2c(c[n+]3c4c2ccc2c5c(cc(c24)CC3)OCO5)c1O [compound 1, reference compound]	MIC (MRSA ATCC 43300): 0.5 µg/mL; MIC (MSSA ATCC 29213): 0.5 µg/mL; MIC (VISA ATCC 700698): 1 µg/mL; MIC (MRSA 13-23; MRSA): 1 µg/mL; MIC (MSSA 16-1; MSSA): 1 µg/mL; MIC (MSSA 15; MSSA): 4 µg/mL; MIC (S.h ATCC 35982): 1 µg/mL; MIC (MRSE 16-5; MRSE): 0.5 µg/mL; MIC (MSSE 16-5): 0.5 µg/mL; MIC (MRSA ATCC-B AA-1708): 0.5 µg/mL; MIC (MRSA 13-18; MRSA): 1 µg/mL; MIC (MRSE 13-3; MRSE): > 64 µg/mL; MIC (MRSA 16-34; MRSA): 0.5 µg/mL; MIC (S.s ATCC 15305): > 64 µg/mL; MIC (MRSA ATCC -BAA-976): 1 µg/mL; MIC (VISA ATCC 700699): 0.5 µg/mL; MIC (MSSE ATCC 12228; ATCC12228): 0.5 µg/mL
> 64	> 64	> 64	> 64		> 64	> 64	> 64	> 64	> 64	> 64	> 64	> 64	> 64	> 64	> 64	> 64	> 64	COc1ccc2c(c[n+]3c4c2ccc2c(OC)c(OC)cc(c24)CC3)c1O [compound 6, 1,2-Dimethoxy-8-hydroxy-9-methoxycycloberberine Chloride]	antimicrobial activity [1]: lost the antimicrobial activities partially or completely
32	32	32	64		32	16	32	16	16	16	32	32	16	32	64	32	8	COc1ccc2c(c[n+]3c4c2ccc2c(O)c(O)cc(c24)CC3)c1O [compound 10, 1,2,8-Trihydroxy-9-methoxycycloberberine Chloride]	antimicrobial activity [1]: lost the antimicrobial activities partially or completely

SMILES	MIC (MRSA ATCC 43300; MRSA ATCC 43300, read-out: MIC) [µg/mL]	MIC (MSSA ATCC 29213; MSSA ATCC 29213, read-out: MIC) [µg/mL]	MIC (VISA ATCC 700698; [2]) [µg/mL]	MIC (MRSA 13-23; MRSA 13-23, read-out: MIC) [µg/mL]	MIC [1] [µg/mL]	MIC (MSSA 16-1; [3]) [µg/mL]	MIC (MSSA 15; [4]) [µg/mL]	MIC (S.h ATCC 35982; [5]) [µg/mL]	MIC (MRSE 16-5; MRSE 16-5, read-out: MIC) [µg/mL]	MIC (MSSE 16-5; [6]) [µg/mL]	MIC (MRSA ATCC-B AA-1708; [7]) [µg/mL]	MIC (MRSA 13-18; MRSA 13-18, read-out: MIC) [µg/mL]	MIC (MRSE 13-3; MRSE 13-3, read-out: MIC) [µg/mL]	MIC (MRSA 16-34; MRSA 16-34, read-out: MIC) [µg/mL]	MIC (S.s ATCC 15305; [8]) [µg/mL]	MIC (MRSA ATCC -BAA-976; [9]) [µg/mL]	MIC (VISA ATCC 700699; [10]) [µg/mL]	MIC (MSSE ATCC 12228; [11]) [µg/mL]	further results
C[C@H]1COc2c(N3CCN(C)CC3)c(F)cc3c(=O)c(C(=O)O)cn1c23 [Lev, levofloxacin, reference compound]	32 (≈ 88.6 µM)		32 (≈ 88.6 µM)	64 (≈ 177 µM)		0.25 (≈ 0.692 µM)			8 (≈ 22.1 µM)		16 (≈ 44.3 µM)	32 (≈ 88.6 µM)	32 (≈ 88.6 µM)	64 (≈ 177 µM)	1 (≈ 2.77 µM)		8 (≈ 22.1 µM)		MIC (MSSA ATCC 29213): 0.125 µg/mL (≈ 0.346 µM); MIC (MSSA 15; MSSA): 0.125 µg/mL (≈ 0.346 µM); MIC (S.h ATCC 35982): 0.125 µg/mL (≈ 0.346 µM); MIC (MSSE 16-5): 0.125 µg/mL (≈ 0.346 µM); MIC (MRSA ATCC -BAA-976): 0.125 µg/mL (≈ 0.346 µM); MIC (MSSE ATCC 12228; ATCC12228, 18 h, MSSE ATCC 12228, read-out: MIC): 0.126 µg/mL (≈ 0.349 µM)
